In publication PMC10166890, “Screening for DAX1/EWS‐FLI1 functional inhibitors identified dihydroorotate dehydrogenase as a therapeutic target for Ewing's sarcoma” (Cancer Medicine, 2023):
“Also recorded” adds a separate entry of the source. Like-named read-outs stand apart in the source and are kept apart here.

Key:
DAX1 = DAX1 reporter assay (KJMGER8/pAGal9p4‐hDAX1 cells, luciferase); assay type: cell-based, human; conditions: for IC50: Homo sapiens; for Inhibitory effect on DAX1 reporter activity: overnight treatment
Method: pAGal9‐hDAX1 and pAPPRE×10‐Luc + were transfected into KJMGER8 cells by electroporation using a Gene Pulser (Bio‐Rad Laboratories, Hercules, CA, USA), and clones stably expressing the DAX1 and luciferase reporter genes under the control of PPRE were selected. The obtained clone was termed KJMGER8/pAGal9p4‐hDAX1. KJMGER8/pAGal9p4‐hDAX1 cells (1.8 × 10^4 cells/well) were seeded in 384‐well white plates (Greiner Japan, Tokyo, Japan) and cultured in RPMI1640‐IPTSG medium containing 10 nM 17β‐estradiol (E2; Sigma‐Aldrich), dissolved in ethanol, with test compounds at concentration ranges of 0.01 to 10,000 nM or vehicle (dimethyl sulfoxide [DMSO]). The final DMSO concentration was ≤0.3%, and the ethanol concentration was 0.1%. The next day, Blight‐Glo Luciferase Assay Reagent (Promega, Madison, WI, USA) was added to the medium. The luciferase activity was measured using a TopCount NXT system (PerkinElmer, Waltham, MA, USA). IC50 values were calculated using XLfit version 4 (ID Business Solutions, Surrey, UK).
A DAX1 reporter assay system was constructed with the estrogen‐inducible Namalwa cell (KJMGER8 cell) by co‐transfection with pAGal9‐hDAX1 and pAPPRE×10‐Luc+.[18] In the obtained cell line KJMGER8/pAGal9p4‐hDAX1, DAX1 expression is induced by E2 treatment, and the expressed DAX1 increases luciferase expression. Reporter activity was increased by E2 treatment as expected (Figure S2). […] Using this DAX1 reporter assay system, small‐molecule compounds in an in‐house library were screened to obtain DAX1 inhibitors, and K‐234 was identified (Figure 1).
pAGal9-hDAX1 and pAPPRE×10-Luc+ were transfected into KJMGER8 cells by electroporation using a Gene Pulser (Bio-Rad Laboratories, Hercules, CA, USA), and clones stably expressing the DAX1 and luciferase reporter genes under the control of PPRE were selected. The obtained clone was termed KJMGER8/pAGal9p4-hDAX1. KJMGER8/pAGal9p4-hDAX1 cells (1.8×10^4 cells/well) were seeded in 384-well white plates (Greiner Japan, Tokyo, Japan) and cultured in RPMI1640-IPTSG medium containing 10 nM 17β-estradiol (E2; Sigma-Aldrich), dissolved in ethanol, with test compounds at concentration ranges of 0.01 to 10000 nM or vehicle (dimethyl sulfoxide [DMSO]). The final DMSO concentration was ≤0.3%, and the ethanol concentration was 0.1%. The next day, Blight-Glo Luciferase Assay Reagent (Promega, Madison, WI, USA) was added to the medium. The luciferase activity was measured using a TopCount NXT system (PerkinElmer, Waltham, MA, USA). IC50 values were calculated using XLfit version 4 (ID Business Solutions, Surrey, UK)

A‐673 cells = assay: Cell viability assay (XTT), A‐673 cells; assay type: cell-based, human; conditions: for GI50: Homo sapiens, A673; for Effect of DHODH overexpression on cell growth inhibitory effect in A‐673 cells: pcDNA3.1hygro(+)‐hDHODH transfected
Method: (§1) AsPC‐1, A‐673, and TC‐71 cells were seeded in 96‐well plates (800 cells/well for AsPC‐1, 2000 cells/well for A‐673, and 400 cells/well for TC‐71) and cultured overnight. Vehicle (DMSO) or a test compound diluted with the medium was then added to the wells (final DMSO concentration was 0.3%), and 72 h later, 2,3‐bis[2‐methoxy‐4‐nitro‐5‐sulfophenynl]‐2H‐tetrazolium‐5‐carboxanilide inner salt (XTT) reagent (Roche Diagnostics, Mannheim, Germany) was added to the medium. After 3‐h incubation at 37°C, the formation of the formazan dye was determined by measuring absorbance at 490 and 650 nm using a SpectraMax 340PC system (Molecular Devices, Sunnyvale, CA, USA).

DHODH [1] = molecular target: T1, DHODH (Homo sapiens, UniProt Q02127); assay: DHODH inhibition assay, A‐673 mitochondria fraction (orotic acid production, LCMSMS); assay type: biochemical
T1 construct: The mitochondria fraction was isolated from A‐673 cells using Q proteome Mitochondria Isolation kit; endogenous in cells; host or cells: A-673 cells, mitochondria fraction
Method: The mitochondria fraction was isolated from A‐673 cells using Q proteome Mitochondria Isolation kit (QIAGEN, Hilden, Germany). The protein concentration of the fraction was determined using the DC‐protein assay kit (Bio‐Rad Laboratories, Hercules, CA, USA) with bovine serum albumin (Sigma‐Aldrich) as the standard. […] The reaction was quenched by adding 120 μL of 3 μM 5‐fluoroorotic acid acetonitrile solution. These samples were then centrifuged at 5000 g for 5 min to precipitate proteins, and the supernatant was collected. The samples were diluted 10‐fold with 70% acetonitrile‐water and subjected to liquid chromatography with tandem mass spectrometry (LCMSMS). The analyte was then separated on a hydrophilic interaction chromatography column (PC‐HILIC; 5 μm, 4.6 mm I.D. × 50 mm; Osaka Soda, Osaka, Japan). LCMSMS detection was performed by electrospray ionization in negative ion mode.

EWS‐FLI1‐related genes = assay: EWS‐FLI1‐related gene expression in A‐673 cells (RT‐qPCR); assay type: cell-based, human; conditions: 48 h; for Expression of DAX1, IGFBP3, and DKK1 in A‐673 cells / Effect of uridine addition on up‐regulation of DAX1, IGFBP3, and DKK1: 1000 nmol/L; for Effect of uridine addition on up‐regulation of DAX1, IGFBP3, and DKK1: uridine 100 μM
Method: Total RNA was extracted using the RNeasy Plus Mini kit (Qiagen, Valencia, CA, USA) according to the manufacturer's protocol. cDNA was synthesized from 1 μg of total RNA using a SuperScript VILO cDNA synthesis kit (Thermo Fisher Scientific). Real‐time PCR was carried out using TaqMan Fast Universal PCR Master Mix (Thermo Fisher Scientific).
FIGURE 3 EWS‐FLI1‐related gene expression after treatment with DAX1 inhibitors and knockdown of FLI1 in A‐673 cells. (A) A‐673 cells were treated with siRNA of FLI1 (siFLI‐1, siFLI‐2) or control siRNA (control siRNA1, control siRNA2) for 24 h, and EWS‐FLI1‐related genes were analyzed (details of siRNA are shown in Table S2). The gene expression was normalized by the GAPDH expression and normalized by the mean of control siRNA‐treated samples. Each bar represents the mean of duplicate measurements. (B) A‐673 cells were treated with PTC299 at 1000 nM for 48 h, and EWS‐FLI1‐related genes were analyzed. Gene expression was normalized by the GAPDH expression and by DMSO‐treated samples. Each bar represents the mean of duplicate measurements.
FIGURE 6 Influence of DHODH overexpression on Ewing's sarcoma cell growth and the EWS‐FLI1‐regulated gene expression. (A) pcDNA3.1hygro(+)‐hDHODH was transfected into A‐673 cells. The A‐673 cells with DHODH or control A‐673 cells were treated with indicated concentrations of PTC299 and KF20444 for 72 h, and cell viability was measured. Each plot represents the mean of triplicate measurements. (B) A‐673 cells with or without uridine (100 μM) were treated with indicated concentrations of PTC299 for 72 h, and cell viability was measured. Each plot represents the mean of triplicate measurements. (C) A‐673 cells with or without uridine (100 μM) were treated with PTC299 and KF20444 at 1000 nmol/L for 48 h, and the EWS‐FLI1‐related gene expression was evaluated. The expression was normalized by GAPDH and by DMSO‐treated samples. (D) KJMGER8/pAGal9p4‐hDAX1 cells with or without uridine (100 μM) were treated with indicated concentrations of PTC299 and K‐733 overnight, and the luciferase activity was measured. Each plot represents the mean of quadruplicate measurements.

DHODH [2] = molecular target: T2, DHODH (Rattus norvegicus, UniProt Q63707); assay: DHODH inhibition with rat liver mitochondria; assay type: biochemical
T2 construct: from tissue; host or cells: rat liver mitochondria

DHODH [3] = molecular target: T3, DHODH (Mus musculus, UniProt O35435); assay: DHODH inhibition with mouse liver mitochondria; assay type: biochemical; conditions: mouse liver mitochondria; read-out: DHODH IC50 Mouse
T3 construct: IC50 value for the mouse liver mitochondrial fraction; from tissue; host or cells: mouse liver mitochondria

CADO‐ES1 cells = assay: Cell viability, CADO‐ES1 cells; assay type: cell-based, human; conditions: 120 h, EWS‐ERG fusion
Method: (§2) FIGURE 2 K‐234 influences the growth of Ewing's sarcoma. (A) Ewing's sarcoma‐derived A‐673 and TC‐71 cells and human pancreas adenocarcinoma‐derived AsPC‐1 cells as a control were treated with indicated concentrations of K‐234 for 72 h, and cell viability was measured. Each value represents the mean of duplicate measurements. (B) Ewing's sarcoma with type 2‐fusion gene‐derived SK‐ES‐1, RD‐ES, and MHH‐ES‐1 cells and Ewing's sarcoma with EWS‐ERG fusion gene‐derived CADO‐ES1 cells were treated with indicated concentrations of K‐234 for 120 h, and cell viability was measured. Each value represents the mean of duplicate measurements.

MHH‐ES‐1 cells = assay: Cell viability, MHH‐ES‐1 cells; assay type: cell-based, human; conditions: 120 h, type 2 fusion
Method: as §2

RD‐ES cells = assay: Cell viability, RD‐ES cells; assay type: cell-based, human; conditions: 120 h, type 2 fusion
Method: as §2

TC‐71 cells = assay: Cell viability assay (XTT), TC‐71 cells; assay type: cell-based, human; conditions: 72 h
Method: as §1

SK‐ES‐1 cells = assay: Cell viability, SK‐ES‐1 cells; assay type: cell-based, human; conditions: 120 h, type 2 fusion
Method: as §2

[4] = KJMGER8, Table S3, read-out: DAX1 reporter IC50
[5] = 50% growth inhibition concentration, A‐673 cells
[6] = KJMGER8/pAGal9p4‐hDAX1 cells, 10 nM E2, overnight, read-out: IC50 for inhibition of DAX1 reporter activity

T1 sequence (Q02127 whole entry): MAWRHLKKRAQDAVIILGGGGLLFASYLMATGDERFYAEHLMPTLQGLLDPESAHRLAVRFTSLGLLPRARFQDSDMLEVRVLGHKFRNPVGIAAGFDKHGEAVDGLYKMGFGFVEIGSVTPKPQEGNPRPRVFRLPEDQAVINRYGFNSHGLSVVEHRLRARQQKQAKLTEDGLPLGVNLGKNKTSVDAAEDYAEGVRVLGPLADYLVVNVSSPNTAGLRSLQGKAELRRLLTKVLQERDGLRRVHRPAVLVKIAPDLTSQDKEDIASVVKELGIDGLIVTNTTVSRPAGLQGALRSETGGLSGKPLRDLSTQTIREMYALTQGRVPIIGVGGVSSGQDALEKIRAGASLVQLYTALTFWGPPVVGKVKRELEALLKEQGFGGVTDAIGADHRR
T2 sequence (Q63707 whole entry): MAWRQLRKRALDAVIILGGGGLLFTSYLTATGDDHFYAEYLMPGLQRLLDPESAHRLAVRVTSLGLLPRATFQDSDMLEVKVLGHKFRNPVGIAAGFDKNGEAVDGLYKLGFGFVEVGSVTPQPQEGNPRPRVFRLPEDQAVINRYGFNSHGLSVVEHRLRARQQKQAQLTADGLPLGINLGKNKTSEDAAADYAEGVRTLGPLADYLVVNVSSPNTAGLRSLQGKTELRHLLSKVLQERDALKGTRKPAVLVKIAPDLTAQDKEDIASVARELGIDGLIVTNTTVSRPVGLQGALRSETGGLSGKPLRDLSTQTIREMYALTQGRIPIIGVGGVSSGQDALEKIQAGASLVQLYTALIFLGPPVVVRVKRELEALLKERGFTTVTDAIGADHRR
T3 sequence (O35435 whole entry): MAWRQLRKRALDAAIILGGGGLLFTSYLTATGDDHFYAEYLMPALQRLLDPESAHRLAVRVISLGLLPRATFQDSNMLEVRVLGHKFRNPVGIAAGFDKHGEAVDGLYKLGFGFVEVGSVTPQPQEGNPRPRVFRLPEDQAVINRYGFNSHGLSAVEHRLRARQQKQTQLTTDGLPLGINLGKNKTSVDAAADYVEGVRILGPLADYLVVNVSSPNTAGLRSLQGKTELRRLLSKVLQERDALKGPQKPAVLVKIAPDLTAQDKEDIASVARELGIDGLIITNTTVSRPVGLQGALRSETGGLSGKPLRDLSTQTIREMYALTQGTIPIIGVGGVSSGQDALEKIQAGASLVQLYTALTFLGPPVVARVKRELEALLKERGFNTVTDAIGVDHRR

Cc1c(-c2ccc(-c3ccccc3F)cc2)nc2ccc(F)cc2c1C(=O)O [Brequinar]
IC50 (DAX1; [4]): 73 nM
GI50 (A‐673 cells; [5]): 115 nM

O=C(O)c1c2c(nc3ccc(F)cc13)-c1ccc(-c3ccccc3F)cc1CCC2 [KF20444]
IC50 (DAX1; [4]): 13.2 nM
Cell viability of A‐673 cells (A‐673 cells; 72 h): reduced the cell viability
Effect of DHODH overexpression on cell growth inhibitory effect in A‐673 cells (A‐673 cells; 72 h): weakened; also recorded: partially attenuated
GI50 (A‐673 cells; [5]): 22.2 nM
IC50 (DHODH [1]; Table S3, read-out: DHODH IC50): 16.8 nM
Expression of DAX1, IGFBP3, and DKK1 in A‐673 cells (EWS‐FLI1‐related genes): up‐regulated
Effect of uridine addition on up‐regulation of DAX1, IGFBP3, and DKK1 (EWS‐FLI1‐related genes): abrogated
IC50 (DHODH [2]): 34.1 nM
IC50 (DHODH [3]): 6.1 nM

O=C(Oc1ccccc1)N1CCc2c([nH]c3ccc(Cl)cc23)C1c1ccc(Cl)cc1 (stereo not drawn) [K‐234, phenyl 6‐chloro‐1‐(4‐chlorophenyl)‐1,3,4, 9‐tetrahydro‐2H‐pyrido[3,4‐b]indole‐2‐carboxylate]
IC50 (DAX1; [6]): 94.5 nM
Cell viability of A‐673 cells (A‐673 cells; 72 h): significantly reduced the viability
Cell viability of CADO‐ES1 cells (CADO‐ES1 cells): significantly reduced the viability
Cell viability of MHH‐ES‐1 cells (MHH‐ES‐1 cells): significantly reduced the viability
Cell viability of RD‐ES cells (RD‐ES cells): significantly reduced the viability
Cell viability of TC‐71 cells (TC‐71 cells): significantly reduced the viability
Cell viability of SK‐ES‐1 cells (SK‐ES‐1 cells): significantly reduced the viability

CC(=O)N1CCc2c([nH]c3ccc(Br)cc23)C1c1ccccc1 (stereo not drawn) [NSC 665564]
IC50 (DAX1; [4]): 666 nM
GI50 (A‐673 cells; [5]): 119 nM
IC50 (DHODH [1]; Table S3, read-out: DHODH IC50): 3.49 nM

COc1ccc([C@H]2c3[nH]c4ccc(Cl)cc4c3CCN2C(=O)Oc2ccc(Cl)cc2)cc1 [PTC299, 4‐chlorophenyl (S)‐6‐chloro‐1‐(4‐methoxyphenyl)‐1,3,4,9‐tetrahydro‐2H‐pyrido[3,4‐b]indole‐2‐carboxylate]
IC50 (DAX1; [6]): 33 nM
Effect of uridine addition on inhibition of DAX1 reporter activity (DAX1; uridine 100 μM, overnight): completely abrogated
Cell viability of A‐673 cells (A‐673 cells; 72 h): decreased the viability
Effect of knockdown and overexpression of DAX1 on the reduction in viability of A‐673 cells (A‐673 cells; 72 h): no marked effect
Effect of DHODH overexpression on cell growth inhibitory effect in A‐673 cells (A‐673 cells; 72 h): significantly attenuated; also recorded: completely canceled
GI50 (A‐673 cells; [5]): 5.11 nM
Effect of uridine addition on growth inhibitory effect in A‐673 cells (A‐673 cells; uridine 100 μM, 72 h): completely blocked; also recorded: completely canceled
IC50 (DHODH [1]; read-out: IC50 for orotic acid production through DHODH): 4.13 nM
DAX1 expression in A‐673 cells (EWS‐FLI1‐related genes; 1000 nM): slightly induced
Expression of DAX1, IGFBP3, and DKK1 in A‐673 cells (EWS‐FLI1‐related genes): up‐regulated
Effect of uridine addition on up‐regulation of DAX1, IGFBP3, and DKK1 (EWS‐FLI1‐related genes): abrogated
IC50 (DHODH [2]): 1520 nM
IC50 (DHODH [3]): 103 nM
Cell viability of TC‐71 cells (TC‐71 cells): decreased the viability

CC(=O)O[C@H]1C(=O)[C@@]2(C)[C@H]([C@H](OC(=O)c3ccccc3)[C@]3(O)C[C@H](OC(=O)[C@H](O)[C@@H](NC(=O)c4ccccc4)c4ccccc4)C(C)=C1C3(C)C)[C@]1(OC(C)=O)CO[C@@H]1C[C@@H]2O [Paclitaxel]
Inhibitory effect on DAX1 reporter activity (DAX1): did not inhibit
Inhibitory effect on DAX1 reporter activity (DAX1; listed as paclitaxel): did not show a remarkable inhibitory effect

C/C(O)=C(\C#N)C(=O)Nc1ccc(C(F)(F)F)cc1 [Teriflunomide]
IC50 (DAX1; [4]): 8500 nM
GI50 (A‐673 cells; Figure 7 legend): > 10000 nM
